This assay concerns rabbit platelet aggregation. As to the kind of experiment: Test for inhibition of rabbit platelet aggregation (ADP-induced, platelet-rich plasma, method of Born). The conditions noted are these: Oryctolagus cuniculus, ADP final concentration 5 μM, 37° C., 3 minutes preincubation, maximum aggregation within 5 minutes. The class given is cell-based, rabbit (New Zealand White-strain). The method, then: Test Example [Test for inhibition of rabbit platelet aggregation]
New Zealand White-strain rabbits (groups of four rabbits each weighing 2.5-4.0 to kg) were tested. Blood was collected from the common carotid artery of the rabbits under on ether anesthesic, and mixed with 3.2to % sodium citrate in volume ratio of 9:1. The blood was centrifuged at 1,100 rpm for 15 minutes to give a platelet-rich plasma (PRP) as a supernatant.
Blood platelet aggregation was determined according to the method of Born [Nature, Vol. 194, p. 927 (1962)]. To 275 to μl of PRP was added 1 μl of a solution of various concentrations of a test compound dissolved in ethanol; the mixture was stirred at 1,000 rpm at 37° C. for 3 minutes; then, in this state, 25 μl of an aggregation-inducing agent [adenosine diphosphate (ADP), final concentration: 5 μM] was added thereto to induce platelet aggregation; and by using an aggregometer, there was determined the maximum aggregation rate (the maximum change in light transmission within 5 minutes from the induction of platelet aggregation).
The aggregatian inhibition rate of the test compound was calculated from the maximum aggregation rate in the presence test compound relative to the maximum aggregation rate when ethanol was used instead of the solution of the test compound; the IC50 value of the test compound was determined from the concentration response curve.

Turning to `COC(=O)COCCCC[C@H]1C(=O)C[C@@H](O)[C@@H]1C#C[C@@H](O)CC1CCCCC1` [Control B, reference compound], the IC50 – broadly, the concentration needed to halve the response being measured – amounted to 134 nM.

In turn, `CC(C)=CCC[C@@H](C)C[C@H](O)C#C[C@H]1[C@H](O)CC(=O)[C@@H]1CCCCOCC(=O)O` [Compound 6, (17R)-20-Isopropylidene-17-methyl-13, 14-didehydro-3-oxa-PGE1] displayed an IC50 of 1.27 nM. Next, `CCCCC(C)(C)C(O)C#C[C@H]1[C@H](O)CC(=O)[C@@H]1CCCCOCC(=O)OC` (stereo partly drawn) [Control D, reference compound]: 1520 nM; `COC(=O)COCCCC[C@H]1C(=O)C[C@@H](O)[C@@H]1C#C[C@@H](O)C[C@H](C)CCC=C(C)C` [Compound 5, (17R)-20-Isopropylidene-17-methyl-13, 14-didehydro-3-oxa-PGE1 methyl ester]: 0.67 nM. The figure for `COC(=O)CSCCCC[C@H]1C(=O)C[C@@H](O)[C@@H]1C#C[C@@H](O)C[C@@H](C)CCC=C(C)C` [Compound 3, (17S)-20-Isopropylidene-17-methyl-13, 14-didehydro-3-thia-PGE1 methyl ester] is 0.39 nM; for `CCCC[C@@H](C)C[C@H](O)C#C[C@H]1[C@H](O)CC(=O)[C@@H]1CCCCOCC(=O)O` [Compound 2, (17R)-17,20-Dimethyl-13,14-didehydro-3-oxa-PGE1] it is 0.66 nM; for `CCCCC(C)[C@H](O)C#C[C@H]1[C@H](O)CC(=O)[C@@H]1CCCCSCC(=O)O` (stereo partly drawn) [Control C, reference compound] it is 911 nM. Next, `CC(C)=CCC[C@H](C)C[C@H](O)C#C[C@H]1[C@H](O)CC(=O)[C@@H]1CCCCSCC(=O)O` [Compound 4, (17S)-20-Isopropylidene-17-methyl-13,14-didehydro-3-thia-PGE1]: 0.26 nM. Regarding `CCCC[C@@H](C)C[C@H](O)C#C[C@H]1[C@H](O)CC(=O)[C@@H]1CCCCOCC(=O)OC` [Compound 1, (17R)-17,20-Dimethyl-13,14-didehydro-3-oxa-PGE1 methyl ester], inhibition was half-maximal at 0.6 nM (IC50).
